Values quoted from earlier work in paper PMC10928227, “Assessing biologic/toxicologic effects of extractables from plastic contact materials for advanced therapy manufacturing using cell painting assay and cytotoxicity screening” (Scientific Reports, 2024).
Where two headings read alike, the source gives them in different places.

Details: cited from earlier work; for Gene mutation, Bacterial Reverse Mutation Assay (e.g. Ames Test): Salmonella typhimurium; for Risk based on in vitro genotoxicity data from database (from QSAR-toolbox): not checked for in vivo relevance, ref QSAR Toolbox 4.5 database
[1] = Strain TA 97, in Vitro, Database: Bacterial mutagenicity ISSSTY, ref CCRIS database,Toxnet databases (Romualdo Benigni)
[2] = Strain TA 98, in Vitro, Database: Bacterial mutagenicity ISSSTY, ref CCRIS database,Toxnet databases (Romualdo Benigni)
[3] = Strain TA 100, in Vitro, Database: Bacterial mutagenicity ISSSTY, ref CCRIS database,Toxnet databases (Romualdo Benigni)
[4] = Strain TA 102, in Vitro, Database: Bacterial mutagenicity ISSSTY, ref CCRIS database,Toxnet databases (Romualdo Benigni)
[5] = Strain TA 1535, in Vitro, Database: Bacterial mutagenicity ISSSTY, ref CCRIS database,Toxnet databases (Romualdo Benigni)
[6] = Strain TA 1537, in Vitro, Database: Bacterial mutagenicity ISSSTY, ref CCRIS database,Toxnet databases (Romualdo Benigni)
[7] = in Vitro, No Strain Information, Database Genotoxicity OASIS, ref Journal of Medicinal Chemistry 48 (1), pp. 312-32, 25, Kazius J, McGuire R., Bursi R
[8] = in Vitro, Strain TA 97, Database Genotoxicity OASIS, ref P&G
[9] = in Vitro, Strain TA 98, Database Genotoxicity OASIS, ref P&G
[10] = in Vitro, Strain TA 100, Database Genotoxicity OASIS, ref P&G
[11] = in Vitro, Strain TA 1535, Database Genotoxicity OASIS, ref P&G
[12] = in Vitro, Strain TA 1537, Database Genotoxicity OASIS, ref P&G
[13] = in Vitro, Strain TA 1538, Database Genotoxicity OASIS, ref P&G
[14] = in Vitro, Chinese hamster, Chinese Hamster Lung (CHL), Duration 24÷48 h, Database Genotoxicity OASIS, ref Sofuni, T., Ed. (1998). Data Book of Chromosomal Aberration Test In Vitro, Revised Edition
[15] = in Vitro, Strain TA 98, Database Bacterial mutagenicity ISSSTY, ref CCRIS database,Toxnet databases, Romualdo Benigni, 02.5.2011
[16] = in Vitro, Strain TA 1535, Database Bacterial mutagenicity ISSSTY, ref CCRIS database,Toxnet databases, Romualdo Benigni, 02.5.2011
[17] = in Vitro, Strain TA 1537, Database Bacterial mutagenicity ISSSTY, ref CCRIS database,Toxnet databases, Romualdo Benigni, 02.5.2011
[18] = in Vitro, Strain TA 97, Database Bacterial mutagenicity ISSSTY, ref CCRIS database,Toxnet databases, Romualdo Benigni, 02.5.2011

CCC(C)=O [78-93-3]
Gene mutation, Bacterial Reverse Mutation Assay (e.g. Ames Test) [1]: Negative | Gene mutation, Bacterial Reverse Mutation Assay (e.g. Ames Test) [2]: Negative | Gene mutation, Bacterial Reverse Mutation Assay (e.g. Ames Test) [3]: Negative | Gene mutation, Bacterial Reverse Mutation Assay (e.g. Ames Test) [4]: Negative | Gene mutation, Bacterial Reverse Mutation Assay (e.g. Ames Test) (Strain TA 104, in Vitro, Database: Bacterial mutagenicity ISSSTY, ref CCRIS database,Toxnet databases (Romualdo Benigni)): Negative | Gene mutation, Bacterial Reverse Mutation Assay (e.g. Ames Test) [5]: Negative | Gene mutation, Bacterial Reverse Mutation Assay (e.g. Ames Test) [6]: Negative | Gene mutation, Bacterial Reverse Mutation Assay (e.g. Ames Test) (Strain TA 1538, in Vitro, Database: Bacterial mutagenicity ISSSTY, ref CCRIS database,Toxnet databases (Romualdo Benigni)): Negative | Gene mutation, Bacterial Reverse Mutation Assay (e.g. Ames Test) [7]: Negative | Gene mutation, Bacterial Reverse Mutation Assay (e.g. Ames Test) [8]: Negative | Gene mutation, Bacterial Reverse Mutation Assay (e.g. Ames Test) [9]: Negative | Gene mutation, Bacterial Reverse Mutation Assay (e.g. Ames Test) [10]: Negative | Gene mutation, Bacterial Reverse Mutation Assay (e.g. Ames Test) (in Vitro, Strain TA 102, OECD Guideline 471, Database Genotoxicity OASIS, ref CCRIS database,Toxnet databases): Negative | Gene mutation, Bacterial Reverse Mutation Assay (e.g. Ames Test) [11]: Negative | Gene mutation, Bacterial Reverse Mutation Assay (e.g. Ames Test) [12]: Negative | Gene mutation, Bacterial Reverse Mutation Assay (e.g. Ames Test) [13]: Negative

CCCCCCCC(=O)O [124-07-2]
Chromosome aberration, in Vitro Mammalian Chromosome Aberration Test (in Vitro, Chinese hamster, Chinese Hamster Lung Cells, Guidelines For Screening Mutagenicity Testing of Chemicals (Chemical Substances Control Law of Japan), Database Toxicity Japan MHLW, ref Japan Ministry of Health Labour and Welfare, http://dra4.nihs.go.jp/mhlw_data/jsp/SearchPageENG.jsp): Negative

O=C1CCCCCN1 [Caprolactam]
Risk based on in vitro genotoxicity data from database (from QSAR-toolbox): Positive in vitro data

CCCCOC(=O)c1ccccc1C(=O)OCCCC [84-74-2]
Gene mutation, Bacterial Reverse Mutation Assay (e.g. Ames Test) [2]: Negative | Gene mutation, Bacterial Reverse Mutation Assay (e.g. Ames Test) [5]: Negative | Gene mutation, Bacterial Reverse Mutation Assay (e.g. Ames Test) [6]: Negative | Chromosome aberration, in Vitro Mammalian Chromosome Aberration Test (in Vitro, Chinese hamster, Chinese Hamster Lung (CHL), Duration 6÷18 h, Database Genotoxicity OASIS, ref Sofuni, T., Ed. (1998). Data Book of Chromosomal Aberration Test In Vitro, Revised Edition): Negative | Chromosome aberration, in Vitro Mammalian Chromosome Aberration Test [14]: Negative | Gene mutation, Bacterial Reverse Mutation Assay (e.g. Ames Test) [8]: Negative | Gene mutation, Bacterial Reverse Mutation Assay (e.g. Ames Test) [15]: Negative | Gene mutation, Bacterial Reverse Mutation Assay (e.g. Ames Test) [9]: Negative | Gene mutation, Bacterial Reverse Mutation Assay (e.g. Ames Test) [10]: Negative | Gene mutation, Bacterial Reverse Mutation Assay (e.g. Ames Test) [16]: Negative | Gene mutation, Bacterial Reverse Mutation Assay (e.g. Ames Test) [11]: Negative | Gene mutation, Bacterial Reverse Mutation Assay (e.g. Ames Test) [17]: Negative | Gene mutation, Bacterial Reverse Mutation Assay (e.g. Ames Test) [12]: Negative | Gene mutation, Bacterial Reverse Mutation Assay (e.g. Ames Test) [13]: Negative

CCCCCCCCCc1ccc(O)cc1 [104-40-5]
Gene mutation, Bacterial Reverse Mutation Assay (e.g. Ames Test) [3]: Negative | Gene mutation, Bacterial Reverse Mutation Assay (e.g. Ames Test) [4]: Negative | Gene mutation, Bacterial Reverse Mutation Assay (e.g. Ames Test) [7]: Negative | Gene mutation, Bacterial Reverse Mutation Assay (e.g. Ames Test) [18]: Negative | Gene mutation, Bacterial Reverse Mutation Assay (e.g. Ames Test) [15]: Negative | Gene mutation, Bacterial Reverse Mutation Assay (e.g. Ames Test) (in Vitro, Strain TA 100, Database Bacterial mutagenicity ISSSTY, ref CCRIS database,Toxnet databases, Romualdo Benigni, 02.5.2011): Negative | Gene mutation, Bacterial Reverse Mutation Assay (e.g. Ames Test) (in Vitro, Strain TA 102, Database Bacterial mutagenicity ISSSTY, ref CCRIS database,Toxnet databases, Romualdo Benigni, 02.5.2011): Negative | Gene mutation, Bacterial Reverse Mutation Assay (e.g. Ames Test) (in Vitro, Strain TA 104, Database Bacterial mutagenicity ISSSTY, ref CCRIS database,Toxnet databases, Romualdo Benigni, 02.5.2011): Negative | Gene mutation, Bacterial Reverse Mutation Assay (e.g. Ames Test) [16]: Negative | Gene mutation, Bacterial Reverse Mutation Assay (e.g. Ames Test) [17]: Negative | Gene mutation, Bacterial Reverse Mutation Assay (e.g. Ames Test) (in Vitro, Strain TA 1538, Database Bacterial mutagenicity ISSSTY, ref CCRIS database,Toxnet databases, Romualdo Benigni, 02.5.2011): Negative

CCCC(C)=O [107-87-9]
Gene mutation, Bacterial Reverse Mutation Assay (e.g. Ames Test) (in Vitro, No Strain Information, Database Genotoxicity OASIS, ref J. Chem. Inf. Model., 2009, 49 (9), pp 2077–2081, Hansen K. et al.): Negative

S=c1[nH]c2ccccc2s1 [149-30-4]
Chromosome aberration, in Vitro Mammalian Chromosome Aberration Test (in Vitro, No Strain Information, Database Genotoxicity OASIS, ref Mutation Research 584 (2005) 1-256, Kirkland et al.): Positive | Gene mutation, Mammalian Cell Gene Mutation Assay (in Vitro, T-lymphoma Cell Lines, Database Genotoxicity OASIS, ref Mutation Research 584 (2005) 1-256, Kirkland et al.): Positive

Sc1nc2ccccc2s1 [2-Mercaptobenzothiazole]
Risk based on in vitro genotoxicity data from database (from QSAR-toolbox): Positive in vitro data

CC(=O)c1ccccc1 [98-86-2]
Gene mutation, Bacterial Reverse Mutation Assay (e.g. Ames Test) [1]: Negative | Gene mutation, Bacterial Reverse Mutation Assay (e.g. Ames Test) [2]: Negative | Gene mutation, Bacterial Reverse Mutation Assay (e.g. Ames Test) [3]: Negative | Gene mutation, Bacterial Reverse Mutation Assay (e.g. Ames Test) [4]: Negative | Gene mutation, Bacterial Reverse Mutation Assay (e.g. Ames Test) [5]: Negative | Gene mutation, Bacterial Reverse Mutation Assay (e.g. Ames Test) [6]: Negative | Gene mutation, Bacterial Reverse Mutation Assay (e.g. Ames Test) [7]: Negative | Gene mutation, Bacterial Reverse Mutation Assay (e.g. Ames Test) [18]: Negative | Gene mutation, Bacterial Reverse Mutation Assay (e.g. Ames Test) (in Vitro, Strain TA 97, Database Genotoxicity OASIS, ref FUJITA H. AND SASAKI M., KENKYU NENPO - TOKYO-TORITSU EISEI KENKYUSHO 38:423-430, 1987): Negative | Gene mutation, Bacterial Reverse Mutation Assay (e.g. Ames Test) [15]: Negative | Gene mutation, Bacterial Reverse Mutation Assay (e.g. Ames Test) (in Vitro, Strain TA 102, Database Genotoxicity OASIS, ref FUJITA H. AND SASAKI M., KENKYU NENPO - TOKYO-TORITSU EISEI KENKYUSHO 38:423-430, 1987): Negative

OCC(O)CO [56-81-5]
Chromosome aberration, in Vitro Mammalian Chromosome Aberration Test (in Vitro, Chinese hamster, Chinese Hamster Lung (CHL), Database Genotoxicity OASIS, ref ECHA, Registration dossier): Negative | Chromosome aberration, in Vitro Mammalian Chromosome Aberration Test [14]: Negative
